Laboratory results reported in patent US8916536B2, “Bone-targeting bisphosphonate duplex drugs” (priority 2010, dated 2014).
Where a name gives a salt, the structure may show the parent alone.

Legend:
[1] = Hydroxyapatite binding of nucleoside-BPs; type: physicochemical
Description: It is known that the BPs moiety of conjugates preserves its high affinity for the bone matrix even when coupled to a bulk residue^17,41 The high affinity to the bone matrix is based on the strong binding properties of BPs to hydroxyapatite^42, 43, 44. For this reasons, we analyzed the adsorption properties of 5-FdU-ale and 5-FdU to hydroxyapatite.
5-FdU (246 mg, 1 mmol) or 5-FdU-ale (475 mg) were dissolved in distilled water (100 ml). The A260-units of the obtained solution and the absorbance ratios of 250/260 and 280/260 were determined using an UV-spectrophotometer. After addition of solid hydroxyapatite as listed in Table 2 the obtained suspension was stirred at room temperature for 24 h. Then, an aliquot (1 ml) of the suspension was filtered through a sterile filter and the A260-units of the filtrate were measured. The amount of drug bound to hydroxyapatite was calculated on the basis of the decreased A260-units of the suspension.
(§1) A solution of 5-FdU-ale (475 mg) in 100 ml H2O was acidified to pH 2 by adding HCl and stirred at 50° C. for 24 h, followed by neutralization with solid sodium carbonate. UV-active degradation products were not detectable at 254 nm by TLC-analysis with CHCl3/MeOH (80:20) using silica gel plates. The hydroxyapatite binding of the pretreated 5-FdU-ale was analyzed as described above.

SF-539 = assay: NCI 60-cell line in vitro screen (SRB), growth percent; type: cell-based; settings: SF-539, CNS cancer; 10 μM, 48 h incubation; 100% = growth without drug
SNB-75 = assay: as above; type: cell-based; settings: SNB-75, CNS cancer; 10 μM, 48 h incubation; 100% = growth without drug
MDA-MB-435 = assay: as above; type: cell-based; settings: MDA-MB-435, Melanomas; 10 μM, 48 h incubation; 100% = growth without drug
SF-268 = assay: as above; type: cell-based; settings: SF-268, CNS cancer; 10 μM, 48 h incubation; 100% = growth without drug
[2] = Stability in acidic conditions (pH 2, 50° C., 24 h; TLC / UV ratio); type: physicochemical
Description: as §1
The binding study was also used for an indirect assessment of the stability of the nucleoside-BPs in acidic conditions. Binding was reduced by 13% compared to the untreated compound when a solution of 5-FdU-ale was acidified to pH 2 and kept at 50° C. during 24 h prior to the adsorption to hydroxyapatite. The unchanged A250/260 and 280/260 UV-ratio indicate that no cleavage of 5-FdU-ale into the monomer 5-FdU+ ale occurs during treatment with hydroxyapatite under the used conditions.
Thus, the absence of UV-active compounds allows to conclude that 5-FdU-ale is very stable in acidic conditions.

HOP-62 = assay: NCI 60-cell line in vitro screen (SRB), growth percent; type: cell-based; settings: HOP-62, Non-small cell lung cancer; 10 μM, 48 h incubation; 100% = growth without drug
CAKI-1 = assay: as above; type: cell-based; settings: CAKI-1, Renal cancers; 10 μM, 48 h incubation; 100% = growth without drug
NCI-H322M = assay: as above; type: cell-based; settings: Non-small cell lung cancer, 10 μM, 48 h incubation, 100% = growth without drug
60 tumor cell lines = assay: NCI 60-cell line in vitro screen, whole panel; type: cell-based; settings: 48/59 cell lines; 10 μM, 48 h incubation
MALME-3M = assay: NCI 60-cell line in vitro screen (SRB), growth percent; type: cell-based; settings: Melanomas, 10 μM, 48 h incubation, 100% = growth without drug
OVCAR-3 = assay: as above; type: cell-based; settings: OVCAR-3, Ovarian cancers; 10 μM, 48 h incubation; 100% = growth without drug
HL-60 (TB) = assay: as above; type: cell-based; settings: Leukemia, 10 μM, 48 h incubation, 100% = growth without drug
EKVX = assay: as above; type: cell-based; settings: Non-small cell lung cancer, 10 μM, 48 h incubation, 100% = growth without drug
[3] = test system: 6 different tumor cell lines; settings: 6 days of incubation, in average, read-out: concentration for 50% growth inhibition; cited from earlier work
[4] = hydroxyapatite 7 g, drug in 100 ml water, 24 h room temperature
[5] = hydroxyapatite 5 g, drug in 100 ml water, 24 h room temperature
[6] = hydroxyapatite 7 g, acid pretreatment (pH 2, 50° C., 24 h, then neutralized)

O=c1[nH]c(=O)n([C@H]2C[C@H](O)[C@@H](CO)O2)cc1F [5-FdU, 2′-deoxy-5-fluorouridine, reference compound]
Bound drug % [1, 4]: 15% | Bound drug mg [1, 4]: 37 mg

O=c1nc(NCCCC(O)(P(=O)(O)O)P(=O)(O)O)c(F)cn1C1CC(O)C(CO)O1 (centres unmarked) [6a, N^4-[butyl-(4-hydroxy-4-phosphono)phosphonate]-5-fluoro-2′-deoxycytidine]
Growth [%] (SF-539): 94.79% | Growth [%] (SNB-75): 87.12% | Growth [%] (MDA-MB-435): 86.95% | Growth [%] (SF-268): 86.64% | cleavage into the monomers 5-FdU + ale ([2]; during treatment with hydroxyapatite, unchanged A250/260 and 280/260 UV-ratio): no cleavage | stability in acidic conditions ([2]; pH 2, 50° C., 24 h, TLC of supernatant, no UV-active compounds): very stable | Growth [%] (HOP-62): 93.16% | Growth [%] (CAKI-1): 79.14% | Growth [%] (NCI-H322M): 88.84% | growth inhibition in the other cell lines (60 tumor cell lines): did not show any growth inhibition | Growth [%] (MALME-3M): 89.24% | reduction of binding compared to the untreated compound ([1]; acidified to pH 2, 50° C., 24 h prior to adsorption): 13% | Bound drug % [1, 5]: 41% | Bound drug mg [1, 5]: 195 mg | adsorption to hydroxyapatite relative to 5-FdU ([1]; hydroxyapatite 7 g): approximately sixfold higher | Bound drug % [1, 6]: 74% | Bound drug mg [1, 6]: 352 mg | Bound drug % [1, 4]: 87% | Bound drug mg [1, 4]: 414 mg | Growth [%] (OVCAR-3): 88.34% | Growth [%] (HL-60 (TB)): 61.75% | Growth [%] (EKVX): 82.45%

O=P(O)(O)C(Cl)(Cl)P(=O)(O)O [Clondronat]
IC50 [3]: 1 to 1410 µM

NCCCC(O)(P(=O)(O)O)P(=O)(O)O [alendronate, (4-Amino-1-hydroxy-1-phosphonobutyl)phosphonate monosodium salt*3H20]
IC50 [3]: 11 to 1860 µM
